In patent EP0643971A2, “Antifungal compositions consisting of an antifungal agent, e.g. antibiotic R-106I, and a fungal MDR inhibitor” (priority 1993, dated 1995):

System: Penicillium chrysogenum
Test: Potentiation of hygromycin B toxicity by trifluoroperazine, growth of regenerating protoplasts on agar
Format: cell-based
Parameters: key to Growth: +: growth of the Penicillium chrysogenum cells, and therefore, that the toxic effect of hygromycin B was not potentiated by TFP; -: no growth of the Penicillium chrysogenum culture, and therefore, that the toxic effect of hygromycin B was potentiated by trifluoroperazine
Conditions: for Growth: 28°C, 48 hours
Source text: Protoplasts of Penicillium chrysogenum (Eli Lilly and Co.) were formed with Novozyme 234 in substantial accordance with the procedure described for Cephalosporium acremonium by Queener et al., 1985 Microbiology 1985, American Society for Microbiology, pp 468-472, and by Skatrud et al., 1987, Current Genetics, 12:337-348. During formation of the P. chrysogenum, protoplasts and subsequent cell wall regeneration, sucrose was used as an osmotic stabilizer rather than sodium chloride as described in the above references. Petri plates were prepared that contained an agar layer consisting of: yeast nitrogen base without amino acids and ammonium sulfate (1.7 g/L) (Difco Laboratories, Detroit, MI); ammonium sulfate (5 g/L); and sucrose (125 g/L); trifluoroperazine (final concentration […]; Sigma Chemical Co. Catalog #T-8516); and cadmium chloride (final concentration 3 mM/ml). Approximately 3 X 10⁷ Penicillium chrysogenum protoplasts were delivered to the surface of the solidified agar in a 4 ml soft agar overlay consisting of the following ingredients: yeast nitrogen base without amino acids and ammonium sulfate (1.7 g/L) (Difco Laboratories, Detroit, MI); ammonium sulfate (5 g/L); sucrose (125 g/L); and agar (4 g/L). The plates were incubated overnight at 15°C.
The next morning hygromycin B (final concentration […]; Boehringer Mannheim Catalog #843 555) was added to the plates in a 4 ml soft agar overlay consisting of yeast nitrogen base without amino acids and ammonium sulfate (1.7 g/L) (Difco Laboratories, Detroit, MI); ammonium sulfate (5 g/L); sucrose (125 g/L); and agar (4 g/L). The plates were incubated at 28°C for 48 hours.
In Table 2, a result of "+" indicates growth of the Penicillium chrysogenum cells, and therefore, that the toxic effect of hygromycin B was not potentiated by TFP. A result of "-" indicates no growth of the Penicillium chrysogenum culture, and therefore, that the toxic effect of hygromycin B was potentiated by trifluoroperazine.

| SMILES | Growth (Hygromycin B 0.250 mg/ml, TFP 250 µM) | Growth (Hygromycin B 1 mg/ml, TFP 500 µM) | Growth (Hygromycin B 2 mg/ml, TFP 500 µM) | Growth (Hygromycin B 3 mg/ml, TFP 500 µM) | Growth (Hygromycin B 4 mg/ml, TFP 500 µM) | Growth (Hygromycin B 5 mg/ml, TFP 0 µM) | Growth (Hygromycin B 5 mg/ml, TFP 500 µM) | Growth (Hygromycin B 0 mg/ml, TFP 500 µM) | toxic effect of hygromycin B on Penicillium chrysogenum (in the presence of triflouroperazine, summary of Table 2) |
| --- | --- | --- | --- | --- | --- | --- | --- | --- | --- |
| CN[C@H]1C[C@@H](N)[C@H](O)[C@@H](O[C@@H]2O[C@H](CO)[C@H](O)[C@@H]3OC4(O[C@H]23)O[C@H]([C@@H](N)CO)[C@H](O)[C@H](O)[C@H]4O)[C@@H]1O (stereo partly drawn) [Hygromycin B, hygromycin B] | - | - | - | - | - | + | - |  |  |
| CN1CCN(CCCN2c3ccccc3Sc3ccc(C(F)(F)F)cc32)CC1 [TFP, trifluoroperazine] |  |  |  |  |  |  |  | + | potentiated |
